From patent publication US20040116420A1 (priority 2001, published 2004) come the findings set out here.

Molecules are shown by their SMILES.

One may read the half-life as the time in which the quantity being followed falls by half.

Series [1] in a line: Human plasma stability. In kind it is in vitro ADME. How it is done:
An Assay Method for Human Plasma Stability Human plasma was thawed, 200 μl each thereof was placed in each cell of a 96-well plate immediately thereafter, and 4 μl of solution of each test compound in 1 mM DMF was added thereto. A microplate reader for fluorescence absorption was used to assay changes in fluorescence, and half life was determined based on the changes.

The subject of series [2] is HSV-1. The experiment in a line: Inhibition of virus multiplication through combined use, plaque formation in Vero cells. The format is cell-based. The conditions noted are these: 3 days. How it is done:
Activity of Inhibiting Virus Multiplication Through Combined use
The Vero cells were sowed on a 48-well plate and then cultured overnight. The culture supernatant was removed, and 100 μl of 2% FBS-DMEM containing 40 Plaque-forming units of HSV-1 was added. A viral solution was removed 1 hour later, And 500 μl of 2% FBS-DMEM containing 0.5% methylcellulose comprising the test Compound was added. In this case, a substance to which 2% FBS-DMEM containing 0.5% methylcellulose not comprising any test compound had been added was designated as a control. They were incubated in the presence of 5% CO2 at 37° C. for 3 days. After they were immobilized on formalin and stained with bromophenol blue, the Amount of plaque formed was counted, and the ratio of plaque formation of the drug-containing reaction system relative to the control was determined. Examination was carried out using the Compound No.18 in combination with aciclovir, the Compound No. 18 in combination with penciclovir, and the Compound No.18 in combination with ganciclovir. In this examination, 25, 12.5, 6.3, 3.2, 1.6, or 0 μM of the Compound No. 18 was used, and 3.2, 1.6, 0.8, 0.4, 0.2, or 0 μM of aciclovir, penciclovir, or ganciclovir was used.

Series [3] concerns Vero cells. The experiment in a line: Cytotoxicity, Vero cells, Alamar Blue. The format is cell-based. The conditions noted are these: 25 μM, 20 hours. In short, it runs like this:
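Overnight-seeded Vero cells were exposed to 25 μM compound in 2% FBS-DMEM for 20 h at 37 °C, 5% CO2. Alamar Blue was then added for about 6 h. The absorbance ratio relative to compound-free control gave the living-cell ratio.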

Compound `Cc1c(NC(=O)OC(C)(C)C)ccc2nc(NC(C)(C)C(=O)N(C)CCc3ccccn3)oc(=O)c12` [Compound No.18, (5-methyl-2-{1-methyl-1-[methyl-(2-pyridin-2-yl-ethyl)-carbamoyl]-ethylamino}-4-oxo-4H-benzo[d][1,3]oxazin-6-yl)-carbamic Acid Tert-Butyl Ester] gave a half-life at 19.6 μM in series [1] of 2.83 h. Moreover, the “Inhibition of multiplication of HSV-1 through combined use” value in series [2] (in combination with aciclovir), in series [2] (in combination with ganciclovir) and in series [2] (in combination with penciclovir) was “synergistically inhibited” in each case. For the same compound, the “Cell viability (% of control)” value in series [3] turned out to be 101.0%.
